Measured values taken from PubChem BioAssay AID250 (DTP/NCI, 2004).
“And” between values parts separate entries of the source, which are not always exact repeats. Equal values may be shown once. Toxic doses and inconclusive results are not listed. Numbered stars: 1 amine (or outer) side, 2 acyl side, 3 side chain; on linkers, the order of the positions; unused ones are H or OH. Bridge positions count the residues as written; N and C are the ends. Square brackets hold non-standard residues; d marks the D form. Peptide text beside a SMILES is read from it. I, II: the chains in the order shown. Actinocin(9to1) = Cc1c2oc3c(C)ccc(C(=O)[*:1])c3nc-2c(C(=O)[*:2])c(N)c1=O; aThr = C[C@H](O)[C@H](N)C(=O)O; NMeV = CN[C@H](C(=O)O)C(C)C; Sar = CNCC(=O)O

System: BDF1 mice, L1210 leukemia sc, survival T/C
Test: NCI In Vivo Anticancer Drug Screen. Data for tumor model L1210 Leukemia (subcutaneous) in B6D2F1 (BDF1) mice
Details: endpoint: median survival time, higher = longer survival
Description: The antitumor activity of compounds was measured in mice bearing transplantable tumors. Survival or tumor size were measured and the results are expressed as the measurement made in the treated group (T) divided by the measurement made in the vehicle treated control group (C). The tumor model used in this assay is L1210 Leukemia (subcutaneous) in B6D2F1 (BDF1) mice

[1] = dose: 3.0 mg/kg/injection, schedule: Q01DX Z (sc), vehicle: methylcellulose (MC)
[2] = dose: 5.0 mg/kg/injection, schedule: Q01DX Z (sc), vehicle: methylcellulose (MC)
[3] = dose: 8.4 mg/kg/injection, schedule: Q01DX Z (sc), vehicle: methylcellulose (MC)
[4] = dose: 14.0 mg/kg/injection, schedule: Q01DX Z (sc), vehicle: methylcellulose (MC)
[5] = dose: 108.0 mg/kg/injection, schedule: Q01DX Z (sc), vehicle: methylcellulose (MC)
[6] = dose: 180.0 mg/kg/injection, schedule: Q01DX Z (sc), vehicle: methylcellulose (MC)
[7] = dose: 39.0 mg/kg/injection, schedule: Q01DX Z (sc), vehicle: methylcellulose (MC)
[8] = dose: 65.0 mg/kg/injection, schedule: Q01DX Z (sc), vehicle: methylcellulose (MC)
[9] = dose: 23.0 mg/kg/injection, schedule: Q01DX Z (sc), vehicle: saline
[10] = dose: 39.0 mg/kg/injection, schedule: Q01DX Z (sc), vehicle: saline
[11] = dose: 65.0 mg/kg/injection, schedule: Q01DX Z (sc), vehicle: saline
[12] = dose: 108.0 mg/kg/injection, schedule: Q01DX Z (sc), vehicle: saline

Nc1ncnc2[nH]ncc12
T/C [1]: 100 % of control
T/C [2]: 112 % of control
T/C [3]: 112 % of control and 115 % of control
T/C [4]: 108 % of control
T/C (dose: 23.3 mg/kg/injection, schedule: Q01DX Z (sc), vehicle: methylcellulose (MC)): 91 % of control
T/C (dose: 38.9 mg/kg/injection, schedule: Q01DX Z (sc), vehicle: methylcellulose (MC)): 120 % of control
T/C (dose: 46.8 mg/kg/injection, schedule: Q01DX Z (sc), vehicle: methylcellulose (MC)): 116 % of control
T/C (dose: 64.8 mg/kg/injection, schedule: Q01DX Z (sc), vehicle: methylcellulose (MC)): 100 % of control
T/C (dose: 78.0 mg/kg/injection, schedule: Q01DX Z (sc), vehicle: methylcellulose (MC)): 100 % of control
T/C [5]: 100 % of control
T/C (dose: 130.0 mg/kg/injection, schedule: Q01DX Z (sc), vehicle: methylcellulose (MC)): 91 % of control
T/C [6]: 100 % of control
T/C (dose: 300.0 mg/kg/injection, schedule: Q01DX Z (sc), vehicle: methylcellulose (MC)): 100 % of control

COC(=N)N
T/C (dose: 1.8 mg/kg/injection, schedule: Q01DX Z (sc), vehicle: methylcellulose (MC)): 100 % of control
T/C [1]: 100 % of control

Cc1c2oc3c(C)ccc(C(=O)N[C@@H]4C(=O)N[C@H](C(C)C)C(=O)N5CCC[C@H]5C(=O)N(C)CC(=O)N(C)[C@@H](C(C)C)C(=O)O[C@H]4C)c3nc-2c(C(=O)N[C@@H]2C(=O)N[C@H](C(C)C)C(=O)N3CCC[C@H]3C(=O)N(C)CC(=O)N(C)[C@@H](C(C)C)C(=O)O[C@H]2C)c(N)c1=O (I: [aThr][dV]P[Sar][NMeV] / II: [aThr][dV]P[Sar][NMeV]; ester I:1-I:C, II:1-II:C; linker I:N-II:N via Actinocin(9to1))
T/C (dose: 0.07 mg/kg/injection, schedule: Q01DX009 (sc), vehicle: saline): 95 % of control
T/C (dose: 0.07 mg/kg/injection, schedule: Q01DX Z (sc), vehicle: saline): 110 % of control
T/C (dose: 0.15 mg/kg/injection, schedule: Q01DX009 (sc), vehicle: saline): 103 % of control
T/C (dose: 0.3 mg/kg/injection, schedule: Q01DX009 (sc), vehicle: saline): 106 % of control
T/C (dose: 0.52 mg/kg/injection, schedule: Q01DX Z (sc), vehicle: saline): 120 % of control
T/C (dose: 0.86 mg/kg/injection, schedule: Q01DX Z (sc), vehicle: saline): 120 % of control

Nc1ncn(C2OC(CO)C(O)C2O)c(=O)n1 (stereo not drawn)
T/C (dose: 0.5 mg/kg/injection, schedule: Q01DX009 (sc), vehicle: saline): 105 % of control
T/C (dose: 0.5 mg/kg/injection, schedule: Q03HX024 (sc), vehicle: saline): 104 % of control
T/C (dose: 0.75 mg/kg/injection, schedule: Q01DX009 (ip), vehicle: saline): 155 % of control
T/C (dose: 0.75 mg/kg/injection, schedule: Q01DX009 (sc), vehicle: saline): 155 % of control
T/C (dose: 1.0 mg/kg/injection, schedule: Q01DX009 (sc), vehicle: saline): 110 % of control and 111 % of control (2×)
T/C (dose: 1.0 mg/kg/injection, schedule: Q03HX024 (sc), vehicle: saline): 118 % of control
T/C (dose: 1.0 mg/kg/injection, schedule: Q05DX009 (sc), vehicle: saline): 116 % of control and 119 % of control
T/C (dose: 1.5 mg/kg/injection, schedule: Q01DX009 (ip), vehicle: saline): 205 % of control
T/C (dose: 1.5 mg/kg/injection, schedule: Q01DX009 (sc), vehicle: saline): 200 % of control
T/C (dose: 2.0 mg/kg/injection, schedule: Q01DX009 (sc), vehicle: saline): 120 % of control and 121 % of control and 122 % of control
T/C (dose: 2.0 mg/kg/injection, schedule: Q04DX003 (sc), vehicle: saline): 100 % of control
T/C (dose: 2.0 mg/kg/injection, schedule: Q05DX009 (sc), vehicle: saline): 122 % of control and 123 % of control
T/C (dose: 3.0 mg/kg/injection, schedule: Q01DX009 (sc), vehicle: saline): 172 % of control
T/C (dose: 3.0 mg/kg/injection, schedule: Q04DX003 (sc), vehicle: saline): 122 % of control
T/C (dose: 4.0 mg/kg/injection, schedule: Q01DX001 (sc), vehicle: saline): 100 % of control
T/C (dose: 4.0 mg/kg/injection, schedule: Q03HX024 (sc), vehicle: saline): 151 % of control
T/C (dose: 4.0 mg/kg/injection, schedule: Q04DX003 (sc), vehicle: saline): 100 % of control
T/C (dose: 6.0 mg/kg/injection, schedule: Q01DX009 (ip), vehicle: saline): 88 % of control
T/C (dose: 6.0 mg/kg/injection, schedule: Q01DX009 (sc), vehicle: saline): 100 % of control
T/C (dose: 6.0 mg/kg/injection, schedule: Q04DX003 (ip), vehicle: saline): 200 % of control
T/C (dose: 6.0 mg/kg/injection, schedule: Q04DX003 (sc), vehicle: saline): 183 % of control
T/C (dose: 8.0 mg/kg/injection, schedule: Q01DX001 (sc), vehicle: saline): 105 % of control
T/C (dose: 8.0 mg/kg/injection, schedule: Q01DX009 (sc), vehicle: saline): 105 % of control
T/C (dose: 8.0 mg/kg/injection, schedule: Q03HX024 (sc), vehicle: saline): 110 % of control
T/C (dose: 8.0 mg/kg/injection, schedule: Q04DX003 (sc), vehicle: saline): 110 % of control
T/C (dose: 12.0 mg/kg/injection, schedule: Q01DX001 (sc), vehicle: saline): 155 % of control
T/C (dose: 12.0 mg/kg/injection, schedule: Q04DX003 (ip), vehicle: saline): 150 % of control
T/C (dose: 12.0 mg/kg/injection, schedule: Q04DX003 (sc), vehicle: saline): 150 % of control
T/C (dose: 16.0 mg/kg/injection, schedule: Q01DX001 (sc), vehicle: saline): 120 % of control
T/C (dose: 16.0 mg/kg/injection, schedule: Q01DX009 (sc), vehicle: saline): 108 % of control and 111 % of control
T/C (dose: 16.0 mg/kg/injection, schedule: Q04DX003 (sc), vehicle: saline): 120 % of control
T/C (dose: 16.0 mg/kg/injection, schedule: Q05DX009 (sc), vehicle: saline): 111 % of control and 113 % of control
T/C (dose: 24.0 mg/kg/injection, schedule: Q01DX001 (ip), vehicle: saline): 155 % of control
T/C (dose: 24.0 mg/kg/injection, schedule: Q01DX001 (sc), vehicle: saline): 166 % of control
T/C (dose: 24.0 mg/kg/injection, schedule: Q04DX003 (sc), vehicle: saline): 105 % of control
T/C (dose: 48.0 mg/kg/injection, schedule: Q01DX001 (ip), vehicle: saline): 166 % of control
T/C (dose: 48.0 mg/kg/injection, schedule: Q01DX001 (sc), vehicle: saline): 166 % of control
T/C (dose: 48.0 mg/kg/injection, schedule: Q04DX003 (ip), vehicle: saline): 100 % of control
T/C (dose: 48.0 mg/kg/injection, schedule: Q04DX003 (sc), vehicle: saline): 122 % of control

Cn1c(O)c(N=NC(N)=S)c2ccccc21
T/C [2]: 100 % of control
T/C [3]: 100 % of control
T/C [4]: 100 % of control
T/C (dose: 23.0 mg/kg/injection, schedule: Q01DX Z (sc), vehicle: methylcellulose (MC)): 100 % of control
T/C [7]: 100 % of control
T/C [8]: 100 % of control
T/C [5]: 100 % of control
T/C [6]: 100 % of control

C=CCNC(=O)NCC=C
T/C (dose: 100.0 mg/kg/injection, schedule: Q01DX001 (ip), vehicle: saline): 105 % of control
T/C (dose: 100.0 mg/kg/injection, schedule: Q01DX001 (sc), vehicle: saline): 111 % of control
T/C (dose: 100.0 mg/kg/injection, schedule: Q04DX003 (ip), vehicle: saline): 111 % of control
T/C (dose: 100.0 mg/kg/injection, schedule: Q04DX003 (sc), vehicle: saline): 111 % of control
T/C (dose: 200.0 mg/kg/injection, schedule: Q01DX001 (ip), vehicle: saline): 111 % of control
T/C (dose: 200.0 mg/kg/injection, schedule: Q01DX001 (sc), vehicle: saline): 111 % of control
T/C (dose: 200.0 mg/kg/injection, schedule: Q01DX009 (ip), vehicle: saline): 150 % of control
T/C (dose: 200.0 mg/kg/injection, schedule: Q04DX003 (ip), vehicle: saline): 122 % of control

CC1(C)N=C(N)N=C(N)N1c1cccc(Br)c1
T/C [9]: 105 % of control
T/C [7]: 112 % of control
T/C [10]: 100 % of control and 122 % of control
T/C [8]: 118 % of control
T/C [11]: 110 % of control and 122 % of control
T/C [12]: 122 % of control

O=c1[nH]c(=O)n(C2CC(O)C(CO)O2)cc1I (stereo not drawn)
T/C (dose: 14.0 mg/kg/injection, schedule: Q01DX Z (sc), vehicle: saline): 100 % of control
T/C [9]: 100 % of control
T/C [10]: 106 % of control
T/C [11]: 103 % of control
T/C [12]: 103 % of control
T/C (dose: 180.0 mg/kg/injection, schedule: Q01DX Z (sc), vehicle: saline): 100 % of control
